Data taken from a compilation of properties of binary mixtures (doi:10.1080/00319104.2019.1566461).

Experiment: xn = mol fraction of the nth substance listed
Settings: 101.3 kPa

CCOS(=O)(=O)[O-].CC[n+]1ccn(C)c1 + CC(C)C(=O)O
x2 = 0
Settings	speed of sound [m/s]
293.15 K	1686.8
298.15 K	1671.4
303.15 K	1661.9
308.15 K	1649.6

CCOS(=O)(=O)[O-].CC[n+]1ccn(C)c1 + CCCCC(=O)O
x2 = 0
Settings	speed of sound [m/s]
288.15 K	1696.4
293.15 K	1686.8
298.15 K	1671.4
303.15 K	1661.9
308.15 K	1649.6
313.15 K	1637.5

CC(C)C(=O)O + CCOS(=O)(=O)[O-].CC[n+]1ccn(C)c1
speed of sound [m/s]
Settings	288.15 K	293.15 K	298.15 K	303.15 K	308.15 K	313.15 K
x1 = 0.1122	1665.5	1652.8	1640	1627.4	1614.9	1602.6
x1 = 0.2295	–	–	1606.3	1593.5	1580.8	1568.2
x1 = 0.3297	1592.5	–	1566.2	1553.2	1540.2	1527.4
x1 = 0.4305	1554.5	1541.2	–	1514.4	1501.1	1488.1
x1 = 0.5464	1501.1	1487.4	–	1459.8	1446.2	1432.7
x1 = 0.6412	–	1439.4	1425.1	1411	1396.9	1383.1
x1 = 0.728	1398.5	1383.9	1369.1	1354.4	1339.9	1325.5
x1 = 0.8127	1331.5	–	–	1284.8	1269	1253.8
x1 = 0.9073	1256.7	1240	1222.8	1205.6	1188.9	1172.5
x1 = 0.9336	1233.1	1213.2	–	–	1162.5	–
x1 = 0.9576	1200.2	–	1158.9	1141	1122.2	1100.7
x1 = 1	1159	1140.3	1121.2	–	1083.6	1065.1

CCCCC(=O)O + CCOS(=O)(=O)[O-].CC[n+]1ccn(C)c1
speed of sound [m/s]
Settings	288.15 K	293.15 K	298.15 K	303.15 K	308.15 K	313.15 K
x1 = 0.0974	–	1655.2	1642.4	1629.8	1617.2	1604.9
x1 = 0.1949	1636.9	–	1611	1598.1	1585.4	1572.9
x1 = 0.2975	1598.8	–	1572.4	–	1546.4	–
x1 = 0.3947	–	–	1538.1	1524.8	–	1498.6
x1 = 0.495	1525	1511.5	1497.7	1484.1	1470.7	1457.3
x1 = 0.595	–	–	1455.3	1441.2	–	1413.8
x1 = 0.6941	1435.7	1421.3	1406.7	1392.3	1377.9	1363.7
x1 = 0.7905	1383	1367.9	1352.6	1337.5	1322.4	1307.5
x1 = 0.8965	1315	1298.6	1282	1265.6	1249.4	1233.2
x1 = 0.926	1295.1	1278.3	1261.3	1244.4	1227.7	1211.1
x1 = 0.9529	1277.5	–	1242.8	–	1208.3	1191.3
x1 = 1	1253.7	1235.8	–	1199.5	–	1163.9
